One data set relates to SARS-CoV-2 trVLP. It counts as cell-based.
A further data set is described as follows: in vitro. It is filed as cell-based, human. The following applies: human, n.d. = not detected. On the procedure: (§1) Caco-2-N cells were seeded into 96-well plate (1×10^3 cells/well). After 12 hours, cells were treated with drugs with different concentrations. Cell viability was measured two days post treatment with CellTiter-Glo Luminescent Cell Viability Assay kit (Promega, G7570) following standard protocol. In brief, cells in 100 μl culture medium were added with 100 μl CellTiter-Glo reagent. After 15 minutes, luminescence was recorded with GloMax (Promega). CC50 was determined using logarithmic interpolation using GraphPad Prism software version 7.0.

The test system of another data set is Caco-2-N cells. Put plainly: in vitro. It is filed as cell-based, human. The settings on record: Fig 6B-6E, at tested concentrations, CellTiter-Glo. On the procedure: as §1
(ATP-based viability assays read luminescence as a measure of living cells.)

A further data set concerns SARS-CoV-2 GFP/ΔN trVLP. It is filed as cell-based.
The next data set relates to HCoV-OC43. The following applies: cited from earlier work.
The subject of data set [1] is SARS-CoV-2 strain nCoV-SH01. As to the kind of experiment: microbe, parasite or virus in culture. It is filed as cell-based.
For the next data set, the system named is SARS-CoV-2. The following applies: cited from earlier work.
Data set [2] concerns avian infectious bronchitis virus (IBV). The settings on record: cited from earlier work.
Where [3] appears, read: Severe acute respiratory syndrome coronavirus 2, A549-ACE2.

Like-named read-outs stand apart in the source and are kept apart here.

Take `[Cl-].[Li+]` [LiCl]: the “effect on GFP expression (trVLP production)” value with SARS-CoV-2 trVLP was “inhibit GFP expression in a dose-dependent manner”. What is called CC50 is the concentration that lowers cell viability or growth by half. `Cc1cccc(C)c1OCC(=O)N[C@@H](Cc1ccccc1)[C@@H](O)C[C@H](Cc1ccccc1)NC(=O)[C@H](C(C)C)N1CCCNC1=O` [Lopinavir] yielded a CC50 in the data set “in vitro” (Fig 6F, CellTiter-Glo, two days treatment) of 19.1 µM. For the same compound, the cytotoxic effect entry in the data set on Caco-2-N cells is given as “serious cytotoxicity at the IC50 concentration”. Moreover, the “Selectivity Index (SI)” value in the data set with SARS-CoV-2 GFP/ΔN trVLP worked out at 2.18. As usually defined, the IC50 is the concentration that gives 50% inhibition. With `O[C@H]1[C@H]2c3cc4c(cc3CN3CCC(=C[C@@H]1O)[C@H]23)OCO4` [Lycorine chloride], the “inhibition of HCoV-OC43 infection” value with HCoV-OC43 is on record as “inhibit HCoV-OC43 infection”. In data set [1] (setting [3]), half-maximal inhibition (IC50) was put at 0.773 µM.

With `CO[C@@H]1C[C@@H](C[C@H]2CC[C@H](C)[C@H]([C@@H](C)C(=O)O)O2)O[C@]2(O[C@](C)([C@H]3CC[C@@](C)([C@@H]4O[C@@H]([C@H]5O[C@@](O)(CO)[C@H](C)C[C@@H]5C)C[C@@H]4C)O3)C[C@H]2C)[C@@H]1C` [Nigericin sodium], in data set [1] (read-out: IC50), the IC50 turned out to be 11.2 µM. Turning to `CCC(CC)COC(=O)[C@H](C)N[P@](=O)(OC[C@H]1O[C@@](C#N)(c2ccc3c(N)ncnn23)[C@H](O)[C@@H]1O)Oc1ccccc1` [Remdesivir], the cytotoxic effect result in the data set on Caco-2-N cells is recorded as “no apparent cytotoxic effect”.

In the case of `CC(C)c1nc(CN(C)C(=O)N[C@H](C(=O)N[C@@H](Cc2ccccc2)C[C@H](O)[C@H](Cc2ccccc2)NC(=O)OCc2cncs2)C(C)C)cs1` [Ritonavir], the cytotoxic effect entry with Caco-2-N cells is listed as “serious cytotoxicity at the IC50 concentration”.

As for `Cn1cc(C2=C(c3ccc(Cl)cc3Cl)C(=O)NC2=O)c2ccccc21` [SB216763], the “effect on GFP expression (trVLP production)” value with SARS-CoV-2 trVLP is reported as “inhibit GFP expression in a dose-dependent manner”. In the data set “in vitro” (Fig 7G hit compounds, cell line for this CC50 not stated), `CC[C@@H](C(=O)[C@@H](C)[C@@H](O)[C@H](C)[C@@H]1O[C@@H]([C@@H](CC)C(=O)O)CC[C@@H]1C)[C@H]1O[C@]2(C=C[C@@H](O)[C@]3(CC[C@@](C)([C@H]4CC[C@](O)(CC)[C@H](C)O4)O3)O2)[C@H](C)C[C@@H]1C` [Salinomycin] returned a CC50 of 20.2 µM. For the same compound, in the data set with HCoV-OC43, the “inhibition of HCoV-OC43 infection” value is given as “inhibit HCoV-OC43 infection”. Further, in the data set with SARS-CoV-2, the “antiviral activity against SARS-CoV-2 infection in vitro” value is “potent antiviral activity”. The “selectivity index (SI = CC50/IC50)” value in data set [1] was determined as 7.13. Besides, the midpoint of inhibition in data set [1] (setting [3]), the IC50, lay at 2.84 µM. For the compound GC376, the cytotoxic effect result with Caco-2-N cells is “no apparent cytotoxic effect”. Regarding Monensin sodium, the “inhibition of HCoV-OC43 infection” value in the data set with HCoV-OC43 is reported as “inhibit HCoV-OC43 infection”. In addition, in data set [2], the “inhibition of IBV infection” value is “blocks avian infectious bronchitis virus (IBV) infection”. The IC50 in data set [1] (read-out: IC50) was 0.632 µM. In the case of Tubeimoside I, the IC50 in data set [1] (read-out: IC50) turned out to be 1.37 µM.

(Values after paper PMC7990224 (PLoS Pathogens, 2021).)
